Laboratory results published in patent publication US6395752B1, “Method of treating depression using 1-threo-methylphenidate” (Pharmaquest Limited, priority 1999, dated 2002).
Marks after values point to notes of the source that are not given here.

Assays:
[1] = oral, cited from earlier work
[2] = Profile of Mood State (POMS) rating scale, randomized 4-phase cross-over study, intravenous administration; assay type: in vivo, healthy male volunteers; settings: i.v.; for Vigor ratings: POMS Vigor-Activity; for Rank order of ratings for Tension, Depression and Anger: three components of Dysphoria, same order in each case
Text: The Profile of Mood State (POMS) rating scale was used to estimate pharmacodynamic factors including Anger-Hostility, Confusion-Bewilderment, Depression-Dejection, Fatigue-Inertia, Tension-Anxiety, and Vigor-Activity. In addition composite scores were also produced for “Energy” (“Vigor-Activity” minus “Fatigue-Inertia”) and “Dysphoria” (“Anger-Hostility” plus “Depression-Rejection” plus “Tension-Anxiety”).

[3] = after oral administration of the racemic drug; cited from earlier work
[4] = plasma; i.v. 10 mg d1-MPH; 11 healthy male volunteers; mean ± SD; cited from earlier work

COC(=O)[C@H](c1ccccc1)[C@H]1CCCCN1 [d1-MPH, d1-threo-methylphenidate]
Hamilton depression scale decrease, subjects with minimal decrease ([1]; 3 subjects): < 30%
Hamilton depression scale decrease, subjects with marked decrease ([1]; 7 subjects): > 55%
Benefit in depressed patients ([1]; older, medically ill depressed patients, n=16): statistically and clinically significant
Vigor ratings ([2]; healthy male volunteers): significantly different from those for 1-MPH and placebo
Effect on "Energy" composite score ([2]; healthy male volunteers): enhanced
Rank order of ratings for Tension, Depression and Anger [2]: 1-MPH<placebo<d1-MPH<d-MPH

COC(=O)[C@H](c1ccccc1)[C@H]1CCCCN1 [d-MPH, d-threo-methylphenidate]
Vigor ratings ([2]; healthy male volunteers): significantly different from those for 1-MPH and placebo
Effect on "Energy" composite score ([2]; healthy male volunteers): not strongly energizing
POMS rating for Fatigue-Inertia ([2]; healthy male volunteers): significantly different from those after 1-MPH
Rank order of ratings for Tension, Depression and Anger [2]: 1-MPH<placebo<d1-MPH<d-MPH

COC(=O)[C@@H](c1ccccc1)[C@@H]1CCCCN1 [1-MPH, 2S,2′S-methyl 2-phenyl-2-(2′-piperidyl) acetate]
Absolute bioavailability (F) [3]: 0.05
t1/2 [4]: 3.61 ± 1.12^b
Rank order of ratings for Tension, Depression and Anger [2]: 1-MPH<placebo<d1-MPH<d-MPH
